# Measurements published in patent publication EP0409414B1, “Diaryl ether cycloalkanes” (IMPERIAL CHEMICAL INDUSTRIES PLC, priority 1989, dated 1991).
# Target: T1, 5-LO (Homo sapiens, UniProt P09917)
# T1 construct: incubating a test compound with heparinised human blood, prior to challenge with the calcium ionophore A23187; endogenous in cells; host or cells: heparinised human whole blood (leukocytes)
# T1 sequence (P09917 1-674): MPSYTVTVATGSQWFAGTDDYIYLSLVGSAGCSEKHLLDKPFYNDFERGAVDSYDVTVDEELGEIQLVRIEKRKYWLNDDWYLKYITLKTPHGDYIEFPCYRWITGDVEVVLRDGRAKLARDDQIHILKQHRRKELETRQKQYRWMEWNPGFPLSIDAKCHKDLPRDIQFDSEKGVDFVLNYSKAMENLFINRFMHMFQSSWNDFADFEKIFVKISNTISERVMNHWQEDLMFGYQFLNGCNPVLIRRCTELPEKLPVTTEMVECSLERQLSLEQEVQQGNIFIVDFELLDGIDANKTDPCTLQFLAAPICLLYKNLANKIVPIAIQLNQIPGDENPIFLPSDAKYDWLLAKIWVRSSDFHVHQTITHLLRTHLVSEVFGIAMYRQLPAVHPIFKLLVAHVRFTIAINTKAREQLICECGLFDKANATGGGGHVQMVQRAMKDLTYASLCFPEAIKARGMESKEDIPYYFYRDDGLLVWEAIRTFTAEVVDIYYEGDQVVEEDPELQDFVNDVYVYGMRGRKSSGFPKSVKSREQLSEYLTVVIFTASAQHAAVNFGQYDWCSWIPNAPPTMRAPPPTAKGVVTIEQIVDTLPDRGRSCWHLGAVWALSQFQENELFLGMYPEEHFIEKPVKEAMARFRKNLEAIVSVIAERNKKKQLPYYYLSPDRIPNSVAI
# Test: heparinised human blood challenged with calcium ionophore A23187, radioimmunoassay of LTB4 (test b)
# Format: cell-based
# Details: individual compounds, read-out: IC50 against LTB4
# Procedure: As stated previously, the compounds of the formula I are inhibitors of the enzyme 5-LO. […] This test provides a measure of the intrinsic inhibitory properties against soluble 5-LO in an extracellular environment. • b) An in vitro assay system involving incubating a test compound with heparinised human blood, prior to challenge with the calcium ionophore A23187 and then indirectly measuring the inhibitory effects on 5-LO by assaying the amount of LTB4 using the specific radioimmunoassay described by Carey and Forder (F. Carey and R.A. Forder, Brit. […] The effects of a test compound on the enzyme cyclooxygenase (which is involved in the alternative metabolic pathway for arachidonic acid and gives rise to prostaglandins, thromboxanes and related metabolites) may be measured at the same time using the specific radioimmunoassay for thromboxane B2(TxB2) described by Carey and Forder (see above). […] It permits the selectivity of the inhibitory effect on 5-LO or cyclooxygenase to be assessed. • c) An ex vivo assay system, which is a variation of test b) above, involving administration of a test compound (usually orally as the suspension produced when a solution of the test compound in dimethylsulphoxide is added to carboxymethylcellulose), blood collection, heparinisation, challenge with A23187 and radioimmunoassay of LTB4 and TxB2. […]
row,IC50,Structure (SMILES)
1,~0.2 µM,"CO[C@H]1CCC[C@@]1(OC)c1cc(F)cc(Sc2ccc3ccccc3c2)c1 (racemic) [Example 1, (1RS,2SR)-1-[5-fluoro-3-(naphth-2-ylthio)phenyl]-1,2-dimethoxycyclopentane]"
2,~0.2 µM,"C=CCO[C@@]1(c2cc(F)cc(Sc3ccc4ccccc4c3)c2)CCC[C@@H]1OC (racemic) [Example 2, (1RS,2SR)-1-allyloxy-1-[5-fluoro-3-(naphth-2-ylthio)phenyl]-2-methoxycyclopentane]"
